This note sets out measurements from PubChem BioAssay (NCI).

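Results reflect a 48-hour exposure of cells in 96-well plates to compound at five concentrations. The concentration for full growth arrest is given as TGI.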

Some test systems named below: SNB-78 CNS; NCI-H226 lung; SF-268 CNS; OVCAR-8 ovarian; UACC-62 melanoma; U251 CNS; SK-MEL-2 melanoma; SR leukemia; CCRF-CEM leukemia; NCI-H23 lung.
Assay in all cases: NCI anticancer screen, dose series, 48 h

Regarding `CCCCCCCCCCCC1CC(=O)NCCCN(C)CCCCN(C)CCCN1C` (stereo not given), the TGI in the experiment on SNB-78 CNS is 3.27 µM; in the experiment with NCI-H226 lung it was 3.43 µM; in the experiment with SF-268 CNS, 3.3 µM; in the experiment on OVCAR-8 ovarian, 3.33 µM; in the experiment on UACC-62 melanoma, 3.09 µM; in the experiment with U251 CNS it was 3.04 µM. Moreover, the TGI in the experiment on SK-MEL-2 melanoma stood at 3.16 µM; in the experiment with SR leukemia it was 0.605 µM; with CCRF-CEM leukemia it was 2.85 µM; with NCI-H23 lung, 3.12 µM.
